From patent US7510825B2, “Kits and methods for detection of apoptotic cells” (NST NeuroSurvival Technologies Ltd, priority 2000, dated 2009) come the findings set out here.

The test system of test [1] is renal tubular cells, ischemic kidney. The test can be described thus: Renal cell injury (ischemia-reperfusion) detection by DDC. Type of test: in vivo, rats. On the procedure: (§1) A. Administration of DDC in-vivo: Injection of 200 μl of DDC intravenously. Following 1-2 hours, animal is sacrificed, and the desired organ is placed in a test tube or on a small plate, suitable for liquid nitrogen freezing. The plate is then covered with an aluminum foil, and transferred to liquid nitrogen. Following 5-30 minutes the specimen is being frozen to −80° C. and kept at −80° C. for at least 16 hr. B. Analysis of the Specimen: • a. Whole organ imaging Ex-vivo whole organ fluorescence imaging may be carried out on freshly excised specimen, that can be analyzed under a stereomicroscope (such as Leica MZ FL III, Leica Switzerland). DDC may be visualized using 360cx and >420cm nm filter set. Emitted fluorescence can be imaged using appropriate camera and software, such as a Leica DC 300F Distal camera and images can be processed and analyzed by Leica QWin Lite software. • b. Histological analysis, from the frozen organ or tissue, 4 μm cryosections are prepared on slides. Analysis of the tissue sections can be performed using a fluorescence microscope with a UV filter characterized by excitation at 360-370 nm (band pass) and emission at 420 nm (barrier filter) In case that staining of the examined tissue is desired, the following procedures can be applied: […]

Test [2] deals with Jurkat cells (T-cell leukemia). As to the kind of experiment: Binding of DDC and PI to Jurkat cells treated with CD95, confocal microscopy. Type of test: cell-based, human. The conditions noted are these: CD95 for 180 minutes; confocal microscope. On the procedure: For microscopic analysis the concentration of cells should be within 1-2×10^7/ml. […] If fixation is needed, it should be performed after DDC staining. • 1. Adjusting the cells to 1-2×10^7/ml in buffer. • 2. Transferring 96 μl from the cell suspension to an eppendorf and staining the cells by adding 4 μl from the DDC solution. Incubating for 10-40 minutes at RT protected from light. • 3. A double labeling could be conducted with PI, if desired. In such a case, 1 μl is added from the PI solution. • 4, Placing the cell suspension on a glass slide. Covering the cells with a glass coverslip. Alternatively, for analyzing adherent cells, cells may grow directly on coverslip. Staining the cells by incubation with DDC (4 μl of DDC/96 μl buffer reaction) or 10-40 minutes and PI (1 μl). […] Observing the cells under fluorescent or confocal microscope equipped with the appropriate UV filter (excitation at 360-370 nm, band pass, and emission at 420 nm, barrier filter. Using a Triple filter (Hoechst/FITC/Texas Red) allows concomitant observation of both DDC and PI. Quantitative Assay for DDC Accumulation using Fluorescene Spectroscopy
Jurkat cells (T-cell leukemia) were treated with CD95 for 180 minutes and incubated with DDC followed by incubation with Propidium Iodide (PI) as detailed in DDC protocols IIIC. The cells were analyzed under fluorescent confocal microscope using a UV filter. […]

Test [3] concerns C26 colon carcinoma tumors. As to the kind of experiment: DDC binding versus TUNEL and H&E in colon carcinoma after Doxorubicin. The note with it: 48 h after Doxorubicin 20 mg/kg; consecutive slides. The format is in vivo, mice. On the procedure: as §1
The test system of test [4] is neurons of the ischemic region. The test can be described thus: Detection by DDC of permanent ischemia by MCA cauterization. The conditions noted are these: DDC i.v. 22 hours from the insult; adjacent slides. Type of test: in vivo, mice. The method, then: (§2) A. Administration of DDC in-vivo: Injection of 200 μl of DDC intravenously. Following 1-2 hours, animal is sacrificed, and the desired organ is placed in a test tube or on a small plate, suitable for liquid nitrogen freezing. The plate is then covered with an aluminum foil, and transferred to liquid nitrogen. Following 5-30 minutes the specimen is being frozen to −80° C. and kept at −80° C. for at least 16 hr. B. Analysis of the Specimen: • a. Whole organ imaging Ex-vivo whole organ fluorescence imaging may be carried out on freshly excised specimen, that can be analyzed under a stereomicroscope (such as Leica MZ FL III, Leica Switzerland). DDC may be visualized using 360cx and >420cm nm filter set. Emitted fluorescence can be imaged using appropriate camera and software, such as a Leica DC 300F Distal camera and images can be processed and analyzed by Leica QWin Lite software. • b. Histological analysis, from the frozen organ or tissue, 4 μm cryosections are prepared on slides. Analysis of the tissue sections can be performed using a fluorescence microscope with a UV filter characterized by excitation at 360-370 nm (band pass) and emission at 420 nm (barrier filter) In case that staining of the examined tissue is desired, the following procedures can be applied:
A permanent ischemia by MCA cauterization was induced in Balb/c mice (Harlan laboratories). […]

The test system of test [5] is epithelial cells of the small intestine. As to the kind of experiment: Detection by DDC of apoptosis in small intestine epithelial cells following chemotherapy. The note with it: 48 hr following Cyclophosphamide and Taxol chemotherapy. Type of test: in vivo, mice. On the procedure: A. Administration of DDC in-vivo: Injection of 200 μl of DDC intravenously. Following 1-2 hours, animal is sacrificed, and the desired organ is placed in a test tube or on a small plate, suitable for liquid nitrogen freezing. The plate is then covered with an aluminum foil, and transferred to liquid nitrogen. Following 5-30 minutes the specimen is being frozen to −80° C. and kept at −80° C. for at least 16 hr. B. Analysis of the Specimen: • a. Whole organ imaging Ex-vivo whole organ fluorescence imaging may be carried out on freshly excised specimen, that can be analyzed under a stereomicroscope (such as Leica MZ FL III, Leica Switzerland). […] Emitted fluorescence can be imaged using appropriate camera and software, such as a Leica DC 300F Distal camera and images can be processed and analyzed by Leica QWin Lite software. • b. […] Analysis of the tissue sections can be performed using a fluorescence microscope with a UV filter characterized by excitation at 360-370 nm (band pass) and emission at 420 nm (barrier filter) In case that staining of the examined tissue is desired, the following procedures can be applied:
Chemotherapy treatment is not selective to tumor cells, but can also affect other organs/tissue within the body as a side effect. […] Such side effects may be detected by DDC in the small intestine, in which the epithelial cells are affected by the chemotherapy. […]

For test [6], the system named is C6-Glioma tumor. As to the kind of experiment: Accumulation of DDC in apoptotic cells of glioma following irradiation. The format is in vivo, mice. The note with it: 20 h after radiation (6 gray).
Test [7] concerns cardiomyocytes. The test can be described thus: Focal uptake of DDC in heart following sepsis (CLP). Type of test: in vivo, mice. The note with it: 24 h after cecal ligature and perforation. On the procedure:
as §2
The cecum of anesthetized mice was isolated, ligated distal to the ileocaecal valve, and punctured twice with 26-gauge needle. […]

Molecules are shown by their SMILES.

With `CN(C)c1cccc2c(S(=O)(=O)NC(CSSCC(NS(=O)(=O)c3cccc4c(N(C)C)cccc34)C(=O)O)C(=O)O)cccc12` (stereo not drawn) [DDC], the “DDC uptake, ischemic kidney compared with control kidney” value in test [1] (45 min renal artery clamping, DDC 20 h after reperfusion, ex-vivo whole organ fluorescence imaging) was “Significant increase in DDC uptake”. Further, the “DDC staining versus TUNEL staining” value in test [1] (kidney sections after ischemia-reperfusion) is on record as “Several cells were stained with DDC but were negative for TUNEL staining”. Moreover, the “cellular staining pattern in apoptotic cells” value in test [2] is “accumulated within the cytoplasm of early and late apoptotic cells”. Moreover, the “correlation of DDC staining with H&E and TUNEL staining” value in test [3] is “highly correlated with both H&E (C) and TUNEL (B) staining”. In test [4], the “correlation of DDC staining of single neurons with H&E staining” value is “high correlation with H&E staining”. In addition, the “uptake of DDC into single epithelial cells” value in test [5] is reported as “increased uptake”. Also, in test [6], the “binding to viable tumor cells or normal brain tissue” value was “not binding”; the “labeling of cells undergoing cell death within the glioma tumor” value was “specifically and selectively labeled cells undergoing cell death”. Also, in test [7], the “fluorescence of DDC in cardiomyocytes following sepsis” value is on record as “can be seen in single cardiomyocites”.
